The sequences below were run against TCR RLQ3. Conditions: read-out: KD of TCR RLQ3 for peptide–HLA-A2.
Format: binding, human

**Q.** For RLAALNAFV [NL63-RLA], which Kd is on record?
**A.** Its Kd is greater than 100 µM.

**Q.** RLAALNVFV [229E-RLA] was tested. Which Kd did it give?
**A.** The Kd was greater than 100 µM.

**Q.** How did the Kd turn out when RLTALNAYV [HKU1-RLT] was run?
**A.** Its Kd is greater than 100 µM.

**Q.** With RLTTLNAFV [MERS-RLT] as the sequence, how does the Kd read?
**A.** Its Kd is greater than 100 µM.

What follows are sequences tested on TCR YLQ7. Conditions: not given.
Format: binding, human

**Q.** For YLAPRTFML [GD_pangolin YLQ ortholog], which “Measured TCR ΔΔG, YLQ7” value is on record?
**A.** Its value is 1.7 kcal/mol.

Same assay, conditions: read-out: KD of TCR YLQ7 for peptide–HLA-A2

**Q.** How did the Kd turn out when KLQPLTFLL [MERS-KLQ] was run?
**A.** Its Kd is greater than 50 µM.

**Q.** With PLSKRQYLL [HKU1-PLS] as the sequence, how does the Kd read?
**A.** The Kd was greater than 50 µM.

**Q.** How did the Kd turn out when PLTSRQYLL [OC43-PLT] was run?
**A.** The Kd was greater than 50 µM.

**Q.** Which Kd does the source give for YLKPTTFML [SARS-YLK] here?
**A.** Its Kd is greater than 50 µM.

Source: article PMC8748687 (Nature Communications, 2022)
